Data: ChEMBL document CHEMBL3875146, “Mycobacterium Tuberculosis (MTB) GyrB inhibitors: An attractive approach for developing novel drugs against TB” (Eur J Med Chem, 2016)
≈ marks a conversion by molar mass, not a printed value.

Assays:
[1] = target: DNA gyrase subunit A/DNA gyrase subunit B (Mycobacterium tuberculosis (strain ATCC 25618 / H37Rv), UniProt P9WG45+P9WG47); test: Inhibition of Mycobacterium tuberculosis DNA gyrase assessed as inhibition of DNA supercoiling activity using relaxed pBR322 as substrate incubated for 30 mins by ethidium bromide staining based agarose gel electrophoresis
[2] = Cytotoxicity against mouse RAW264.7 cells assessed as inhibition of cell viability at 100 uM measured after 72 hrs by MTT assay relative to control; format: toxicity; settings: read-out: INH
[3] = test system: Mycobacterium tuberculosis; test: Antimycobacterial activity against Mycobacterium tuberculosis incubated for 7 days by alamar blue assay; format: functional; settings: 168 h
[4] = Cytotoxicity against mouse RAW264.7 cells assessed as inhibition of cell viability at 100 uM measured after 48 hrs by MTT assay relative to control; format: toxicity; settings: read-out: INH
DNA gyrase subunit B = DNA gyrase subunit B (Mycobacterium smegmatis, UniProt P0C559); test: Inhibition of Mycobacterium smegmatis DNA gyrase B expressed in BL21(DE3)pLysS cells assessed as inhibition of […] activity in presence of ATP measured after 30 mins by malachite green dye based assay; format: cell-based, Mycolicibacterium smegmatis
Sequence of DNA gyrase subunit B (P0C559 whole entry): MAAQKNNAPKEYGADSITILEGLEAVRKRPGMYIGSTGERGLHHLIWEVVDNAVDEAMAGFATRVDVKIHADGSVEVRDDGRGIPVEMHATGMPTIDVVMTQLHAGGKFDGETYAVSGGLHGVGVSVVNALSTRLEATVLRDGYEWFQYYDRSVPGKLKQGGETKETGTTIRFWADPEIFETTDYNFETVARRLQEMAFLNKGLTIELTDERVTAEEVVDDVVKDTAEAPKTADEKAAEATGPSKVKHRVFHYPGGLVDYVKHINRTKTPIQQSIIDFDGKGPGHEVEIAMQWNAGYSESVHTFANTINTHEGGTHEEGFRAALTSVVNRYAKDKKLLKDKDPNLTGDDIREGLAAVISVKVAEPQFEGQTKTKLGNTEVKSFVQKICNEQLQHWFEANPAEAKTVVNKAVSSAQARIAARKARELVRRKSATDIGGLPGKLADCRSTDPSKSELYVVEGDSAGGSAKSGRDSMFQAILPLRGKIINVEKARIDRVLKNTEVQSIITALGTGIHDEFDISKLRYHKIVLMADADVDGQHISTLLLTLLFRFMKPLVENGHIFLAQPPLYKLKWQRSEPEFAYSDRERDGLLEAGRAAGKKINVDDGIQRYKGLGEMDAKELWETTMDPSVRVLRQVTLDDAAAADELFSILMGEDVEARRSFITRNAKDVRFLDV

Sequence of DNA gyrase subunit A/DNA gyrase subunit B (P9WG45 whole entry): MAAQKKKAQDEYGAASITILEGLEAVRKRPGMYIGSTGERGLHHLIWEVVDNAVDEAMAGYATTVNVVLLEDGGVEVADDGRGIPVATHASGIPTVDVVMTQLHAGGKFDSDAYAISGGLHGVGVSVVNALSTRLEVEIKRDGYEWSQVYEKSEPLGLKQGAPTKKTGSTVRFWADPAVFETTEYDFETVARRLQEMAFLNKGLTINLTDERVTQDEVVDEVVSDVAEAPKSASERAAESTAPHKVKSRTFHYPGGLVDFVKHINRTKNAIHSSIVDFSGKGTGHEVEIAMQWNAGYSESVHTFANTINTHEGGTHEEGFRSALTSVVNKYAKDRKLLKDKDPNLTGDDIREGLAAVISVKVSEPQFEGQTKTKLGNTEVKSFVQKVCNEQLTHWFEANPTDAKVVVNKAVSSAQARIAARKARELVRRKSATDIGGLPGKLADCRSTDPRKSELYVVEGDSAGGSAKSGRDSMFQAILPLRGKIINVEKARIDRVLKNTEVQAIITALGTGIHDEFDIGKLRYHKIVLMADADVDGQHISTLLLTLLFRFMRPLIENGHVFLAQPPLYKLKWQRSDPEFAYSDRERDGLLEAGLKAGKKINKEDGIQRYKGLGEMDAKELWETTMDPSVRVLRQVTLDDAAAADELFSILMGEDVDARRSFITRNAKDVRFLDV
Sequence of DNA gyrase subunit A/DNA gyrase subunit B (P9WG47 whole entry): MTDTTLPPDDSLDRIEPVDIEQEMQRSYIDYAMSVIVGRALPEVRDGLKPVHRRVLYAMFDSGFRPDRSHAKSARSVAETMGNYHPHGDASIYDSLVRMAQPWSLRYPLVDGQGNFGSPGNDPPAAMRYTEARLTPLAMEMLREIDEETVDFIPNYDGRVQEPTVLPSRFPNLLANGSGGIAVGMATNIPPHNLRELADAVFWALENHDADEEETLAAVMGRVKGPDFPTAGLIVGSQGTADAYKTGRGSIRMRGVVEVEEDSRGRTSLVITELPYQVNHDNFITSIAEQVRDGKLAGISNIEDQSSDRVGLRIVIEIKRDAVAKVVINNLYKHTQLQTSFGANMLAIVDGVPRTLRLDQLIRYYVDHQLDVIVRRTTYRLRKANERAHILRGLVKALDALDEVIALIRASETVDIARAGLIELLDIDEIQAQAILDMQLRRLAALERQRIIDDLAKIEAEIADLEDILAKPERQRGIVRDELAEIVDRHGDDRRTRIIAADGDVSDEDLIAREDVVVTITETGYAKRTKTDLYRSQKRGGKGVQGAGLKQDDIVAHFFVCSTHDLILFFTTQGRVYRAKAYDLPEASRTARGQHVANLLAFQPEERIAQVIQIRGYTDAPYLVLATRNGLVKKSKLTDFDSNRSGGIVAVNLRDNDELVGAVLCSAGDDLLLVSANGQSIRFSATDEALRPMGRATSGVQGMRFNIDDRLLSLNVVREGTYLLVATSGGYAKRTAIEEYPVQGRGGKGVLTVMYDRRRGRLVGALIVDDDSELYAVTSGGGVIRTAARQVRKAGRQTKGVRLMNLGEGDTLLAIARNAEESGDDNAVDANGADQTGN

| Compound | IC50 [1] | cytotoxicity at 72 h, 100 µM [2] | MIC [3] | cytotoxicity at 48 h, 100 µM [4] | IC50 (DNA gyrase subunit B) |
| --- | --- | --- | --- | --- | --- |
| Cc1ccc2c(c1)C(=O)C(=O)N2CCN1CCN(NCc2ccccc2C(F)(F)F)CC1 | > 50 µM | 13.6% | – | – | – |
| O=c1nc(N2CCN(C(=S)Nc3ccc(Cl)cc3)CC2)sc2ccc(C(F)(F)F)cc12 | 4.23 µM | – | 8.59 µM (≈ 4.17 µg/mL) | 3.15% | – |
| O=C1C(=O)N(CCN2CCN(NCc3ccc(Cl)cc3Cl)CC2)c2ccccc21 | 40.3 µM | 18.5% | – | – | 84 µM |
| COc1ccc2c(c1)C(=O)C(=O)N2CCN1CCN(NCc2ccccc2F)CC1 | > 50 µM | 16.3% | – | – | – |
| O=C1C(=O)N(CCN2CCN(NCc3ccc([N+](=O)[O-])o3)CC2)c2ccc(F)cc21 | > 50 µM | 37.8% | – | – | – |
| COc1ccc2c(c1)C(=O)C(=O)N2CCN1CCN(NCc2ccc(Cl)cc2Cl)CC1 | 4.1 µM | 26.4% | – | – | 15.8 µM |
| O=C(Nc1ccccc1)N1CCN(c2nc(=O)c3cc([N+](=O)[O-])ccc3s2)CC1 | 16.8 µM | – | 30.4 µM (≈ 12.5 µg/mL) | – | – |
| Cc1ccc2c(c1)C(=O)C(=O)N2CCN1CCN(NCc2ccc([N+](=O)[O-])o2)CC1 | > 50 µM | 27.8% | – | – | – |
| Cc1ccc(NC(=O)N2CCN(c3nc(=O)c4cc([N+](=O)[O-])ccc4s3)CC2)cc1 | 9.62 µM | – | 14.7 µM (≈ 6.25 µg/mL) | 16.2% | – |
| O=C1C(=O)N(CCN2CCN(NCc3ccccc3C(F)(F)F)CC2)c2ccccc21 | 25 µM | 4.2% | – | – | 51 µM |
| O=C1C(=O)N(CCN2CCN(NCc3ccc([N+](=O)[O-])o3)CC2)c2ccccc21 | 4.6 µM | 30.6% | – | – | 20.2 µM |
| O=C(Nc1ccc(Cl)cc1)N1CCN(c2nc(=O)c3cc(Cl)ccc3s2)CC1 | 10.5 µM | – | 17.9 µM (≈ 7.8 µg/mL) | 2.56% | – |
| O=C1C(=O)N(CCN2CCN(NCc3ccccc3)CC2)c2ccc(Cl)cc21 | > 50 µM | 22.3% | – | – | – |
| O=C1C(=O)N(CCN2CCN(NCc3ccccc3C(F)(F)F)CC2)c2ccc(Cl)cc21 | 4.9 µM | 16.4% | – | – | 22.1 µM |
| CO[C@@H]1[C@@H](OC(N)=O)[C@@H](O)[C@H](Oc2ccc3c(O)c(NC(=O)c4ccc(O)c(CC=C(C)C)c4)c(=O)oc3c2C)OC1(C)C [NOVOBIOCIN] | – | – | > 200 µM | 7.56% | – |
| O=c1nc(N2CCN(Cc3ccccc3)CC2)sc2ccc(Cl)cc12 | 17.6 µM | – | 33.6 µM (≈ 12.5 µg/mL) | – | – |

| Compound | IC50 [1] | cytotoxicity at 72 h, 100 µM [2] | MIC [3] | cytotoxicity at 48 h, 100 µM [4] | IC50 (DNA gyrase subunit B) |
| --- | --- | --- | --- | --- | --- |
| Cc1ccc(CN2CCN(c3nc(=O)c4cc(Cl)ccc4s3)CC2)cc1 | 21.5 µM | – | 24.2 µM (≈ 9.36 µg/mL) | 2.36% | – |
| O=C1C(=O)N(CCN2CCN(NCc3ccccc3OCc3ccccc3)CC2)c2ccc(F)cc21 | 42.3 µM | 11.7% | – | – | 70.1 µM |
| O=C1C(=O)N(CCN2CCN(NCc3ccccc3OCc3ccccc3)CC2)c2ccc(Cl)cc21 | 3.8 µM | 26.8% | – | – | 13.8 µM |
| O=c1nc(N2CCN(C(=S)Nc3ccccc3)CC2)sc2ccc(C(F)(F)F)cc12 | 0.83 µM | – | 4.62 µM (≈ 2.08 µg/mL) | 6.48% | – |
| Cc1ccc2c(c1)C(=O)C(=O)N2CCN1CCN(NCc2ccc(Cl)cc2Cl)CC1 | 48.9 µM | 25.3% | – | – | 79 µM |
| O=c1nc(N2CCN(C(=S)Nc3ccc([N+](=O)[O-])cc3)CC2)sc2ccc(C(F)(F)F)cc12 | 2.16 µM | – | 5.04 µM (≈ 2.5 µg/mL) | 5.48% | – |
| O=C1C(=O)N(CCN2CCN(NCc3ccccc3)CC2)c2ccc(F)cc21 | > 50 µM | 29.3% | – | – | – |
| O=C(Nc1ccccc1)N1CCN(c2nc(=O)c3cc(Cl)ccc3s2)CC1 | 17.5 µM | – | 15.6 µM (≈ 6.25 µg/mL) | 16.5% | – |
| O=C(Nc1ccccc1)N1CCN(c2nc(=O)c3cc(C(F)(F)F)ccc3s2)CC1 | 11 µM | – | 19.2 µM (≈ 8.33 µg/mL) | – | – |
| O=C1C(=O)N(CCN2CCN(NCc3ccccc3F)CC2)c2ccc(F)cc21 | 4.2 µM | 22.1% | – | – | 20.3 µM |
| O=c1nc(N2CCN(Cc3ccc([N+](=O)[O-])cc3)CC2)sc2ccc(C(F)(F)F)cc12 | 4.55 µM | – | 5.19 µM (≈ 2.34 µg/mL) | 14.6% | – |
| COc1ccc2c(c1)C(=O)C(=O)N2CCN1CCN(NCc2cccc(Cl)c2Cl)CC1 | 48.6 µM | 23.9% | – | – | 73 µM |
| O=C1C(=O)N(CCN2CCN(NCc3cccc(Cl)c3Cl)CC2)c2ccccc21 | 4.8 µM | 16.8% | – | – | 21.7 µM |
| Cc1ccc(NC(=O)N2CCN(c3nc(=O)c4cc(Cl)ccc4s3)CC2)cc1 | 2.62 µM | – | 6.02 µM (≈ 2.5 µg/mL) | 5.14% | – |
| O=c1nc(N2CCN(Cc3ccc([N+](=O)[O-])cc3)CC2)sc2ccc([N+](=O)[O-])cc12 | 4.21 µM | – | 7.31 µM (≈ 3.12 µg/mL) | 21.4% | – |
